Where “and” joins values, the source holds several entries; their conditions need not be identical. Equal entries are not always repeated.
Assays:
ECHCG = experiment: Postemergence foliar-applied weed control, direct-seeded rice (greenhouse); type: in vivo, Echinochloa crus-galli (L.) P. Beauv. (barnyardgrass)
CYPRO = experiment: In-water applied weed control, transplanted paddy rice (greenhouse); type: in vivo, Cyperus rotundus L. (purple nutsedge); details: 19 DAA
Experimental: Weed seeds or nutlets of the desired test plant species were planted in puddled soil (mud) prepared by mixing a shredded, non-sterilized mineral soil (50.5 percent silt, 25.5 percent clay, and 24 percent sand, with a pH of about 7.6 and an organic matter content of about 2.9 percent) and water at a 1:1 volumetric ratio. The prepared mud was dispensed in 365 mL aliquots into 16-ounce (oz.) non-perforated plastic pots with a surface area of 86.59 square centimeters (cm^2) leaving a headspace of 3 centimeters (cm) in each pot. Rice seeds were planted in Sun Gro MetroMix® 306 planting mixture, which typically has a pH of 6.0 to 6.8 and an organic matter content of about 30 percent, in plastic plug trays. Seedlings at the second or third leaf stage of growth were transplanted into 860 mL of mud contained in 32-oz. non-perforated plastic pots with a surface area of 86.59 cm^2 4 days prior to herbicide application. The paddy was created by filling the headspace of the pots with 2.5 to 3 cm of water. When required to ensure good germination and healthy plants, a fungicide treatment and/or other chemical or physical treatment was applied. The plants were grown for 4-22 days in a greenhouse with an approximate 14 hour (h) photoperiod which was maintained at about 29° C. during the day and about 26° C. during the night. Nutrients were added as Osmocote® (17:6:10, N:P:K+minor nutrients) at 2 g per cup. Water was added on a regular basis to maintain the paddy flood, and supplemental lighting was provided with overhead metal halide 1000-Watt lamps as necessary. The plants were employed for testing when they reached the first through fourth true leaf stage.
Treatments consisted of the acid or esters of 4-amino-3-chloro-5-fluoro-6-(4-chloro-2-fluoro-3-methoxy-phenyl)pyridine-2-carboxylic acid (compound A) each formulated as an SC (suspension concentrate) and various fungicidal components alone and in combination. Forms of compound A were applied on an acid equivalent basis.
Treatment requirements for each compound or fungicidal component were calculated based upon the rates being tested, the concentration of active ingredient or acid equivalent in the formulation, an application volume of 2 mL per component per pot, and an application area of 86.59 cm^2 per pot.
For formulated compounds, a measured amount was placed in an individual 100 or 200 mL glass vial and was dissolved in a volume of 1.25% (v/v) Agri-Dex® crop oil concentrate to obtain application solutions.
For technical grade compounds, a weighed amount was placed in an individual 100 to 200 mL glass vial and dissolved in a volume of acetone to obtain concentrated stock solutions.
Applications were made by injecting with a pipetter appropriate amounts of the application solutions, individually and sequentially, into the aqueous layer of the paddy. Control plants were treated in the same manner with the solvent blank. Applications were made so that all treated plant material received the same concentrations of acetone and crop oil concentrate.
The treated plants and control plants were placed in a greenhouse as described above and water was added as needed to maintain a paddy flood. After approximately 3 weeks the condition of the test plants as compared with that of the untreated plants was determined visually and scored on a scale of 0 to 100 percent where 0 corresponds to no injury or growth inhibition and 100 corresponds to complete kill.
Colby's equation was used to determine the herbicidal effects expected from the mixtures (Colby, S. R. Calculation of the synergistic and antagonistic response of herbicide combinations. Weeds 1967, 15, 20-22.).
The following equation was used to calculate the expected activity of mixtures containing two active ingredients, A and B: Expected=A+B−(A×B/100)

COc1c(Cl)ccc(-c2nc(C(=O)OCc3ccccc3)c(Cl)c(N)c2F)c1F [Compound A Benzyl Ester]
Visual Weed Control (%)—21 DAA ECHCG Obs (ECHCG; r9-11 ester 8/16/32 g ae/ha alone, r12-14 hexaconazole 25/50/100 g ai/ha alone, r15-23 ester 8/16/32 at each of 25, 50, 100): 85% and 90% and 45%
Visual Weed Control (%)—21 DAA ECHCG Obs (ECHCG; r38-39 ester 8/16 g ae/ha alone, r40 isotianil 380 g ai/ha alone, r41-42 ester 8/16 + 380): 45% and 85%
Visual Weed Control (%) - 21 DAA ECHCG Obs (ECHCG; r58-60 ester 8/16/32 g ae/ha alone, r61-63 difenoconazole 50/100/200 g ai/ha alone, r64-72 ester 8/16/32 at each of 50, 100, 200): 70% and 60% and 90%
Visual Weed Control (%) - 19 DAA CYPRO Obs (CYPRO; Compound A Benzyl Ester 8 g ae/ha): 20%
Visual Weed Control (%) - 19 DAA CYPRO Obs (CYPRO; Compound A Benzyl Ester 16 g ae/ha): 88%
Visual Weed Control (%) - 19 DAA CYPRO Obs (CYPRO; Compound A Benzyl Ester 32 g ae/ha): 87%

Reference: patent US9730445B2, “Herbicidal compositions comprising 4-amino-3-chloro-5-fluoro-6-(4-chloro-2-fluoro-3-methoxyphenyl) pyridine-2-carboxylic acid or a derivative thereof and fungicides” (DOW AGROSCIENCES LLC, priority 2013, dated 2017)
